The text below walks through data of patent US20250127868A1, “HYPERACTIVATING LIPID NANOPARTICLES” (Corner Therapeutics, Inc., priority 2022, published 2025).

What all share (type): cell-based
The test system of experiment [1] is human PBMCs. Nature of the experiment: IFNγ secretion by human PBMCs (ELISA). The settings on record: two days post-activation. The method, then:
(§1) Isolation of PBMCs from Whole Blood. PBMCs were isolated from whole blood using density gradient centrifugation with Ficoll-Paque PLUS (Cytivia). Whole blood was diluted 1:1 with PBS, layered on top of Ficoll-Paque PLUS and centrifuged at 1000×g for 30 minutes at room temperature. PBMCs were collected, washed twice in PBS, and incubated with Ack lysis buffer (Lonza) to remove any remaining red blood cells.
(§2) Cell Culture and Stimulation. Immediately following isolation, PBMCs were plated in RPMI medium containing 10% FBS, 50 units/mL penicillin, […] streptomycin, 2 mM L-glutamine, 1 mM sodium pyruvate, and […] beta-mercaptoethanol (R10 media). […]
(§3) Endpoint Analyses. […] Half of the media volume in the wells was collected for cytokine quantification by Enzyme-Linked Immunosorbent Assay (ELISA) or Lumit™ Bioluminescent assay, while the remaining media and cells were used to quantify cell viability by assessing metabolic activity.
(§4) Quantification of Cytokine Secretion. IL-1β secretion from human PBMCs was assessed using one of the following kits: ELISA MAX Deluxe Set Human IL-1β kit (Biolegend), Invitrogen Human IL-1β kit, or the Lumit™ Human IL-1β Immunoassay (Promega). IFNγ secretion from human PBMCs was assessed using the ELISA MAX Deluxe Set Human IFNγ (Biolegend) and TNFα secretion from human PBMCs was assessed using the Human TNFα Uncoated ELISA kit (Invitrogen). […]

The subject of a further experiment is canine PBMCs. The experiment is described as follows: IL-1β secretion by canine PBMCs (ELISA). The settings on record: two days post-activation, R848 1 μg/mL, 22:0 LYSO PC 82.5 μM, LPS 1 μg/mL, Alum 30 μg/mL. (In general: In an ELISA, binding on a coated surface is turned into a signal by an enzyme label.)
Experiment [2] deals with human PBMCs. Nature of the experiment: IL-1β secretion by human PBMCs (ELISA or Lumit). The settings on record: two days post-activation, R848 1 μg/mL, 22:0 LYSO PC 82.5 μM. The protocol:
as §1, §2, §3, §4

Turning to `Nc1nc2c(ncn2[C@@H]2O[C@@H]3COP(=O)(O)O[C@H]4[C@@H](O)[C@H](n5cnc6c(N)ncnc65)O[C@@H]4COP(=O)(O)O[C@@H]2[C@@H]3O)c(=O)[nH]1` [2′3′cGAMP, reference compound], the “IFNγ secretion, fold change per donor relative to R848 alone” value in the experiment on human PBMCs [1] is reported as “neither GM-CSF nor 2′3′cGAMP elicited a substantial fold change in IFNγ secretion”. Also, in the experiment with canine PBMCs, the IL-1β secretion entry is “neither GM-CSF nor 2′3′cGAMP induced significant IL-1β secretion”.
Consider “GM-CSF: human GM-CSF (Peprotech), added at 10 ng/ml”, for which the IL-1β secretion result with human PBMCs [2] is on record as “did not induce levels of IL-1β secretion from human PBMCs significantly above background levels”; in the experiment on canine PBMCs, “neither GM-CSF nor 2′3′cGAMP induced significant IL-1β secretion”. Moreover, the “IFNγ secretion, fold change per donor relative to R848 alone” value in the experiment with human PBMCs [1] is “neither GM-CSF nor 2′3′cGAMP elicited a substantial fold change in IFNγ secretion”.
